According to the Kinase Knowledgebase extract (Sharma et al. 2016):

Molecular target: MAPK14 (UniProt Q16539)
Test: Inhibition of MAPK14 Kinase Activity

MAPK14, sequence (Q16539 whole entry, looked up): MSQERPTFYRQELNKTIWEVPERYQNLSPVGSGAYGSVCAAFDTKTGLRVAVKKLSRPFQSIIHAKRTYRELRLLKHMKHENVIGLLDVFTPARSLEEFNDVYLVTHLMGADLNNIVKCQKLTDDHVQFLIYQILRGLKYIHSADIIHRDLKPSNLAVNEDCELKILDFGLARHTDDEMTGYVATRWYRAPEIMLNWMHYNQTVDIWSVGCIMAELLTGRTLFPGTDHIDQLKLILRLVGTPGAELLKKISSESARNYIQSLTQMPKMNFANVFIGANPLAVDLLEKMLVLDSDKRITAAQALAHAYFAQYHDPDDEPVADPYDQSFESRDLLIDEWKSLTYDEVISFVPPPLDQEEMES

Structure (SMILES) | IC50
COCn1ccc2cc(C(=O)N3CCC(Cc4ccc(F)cc4)CC3)c(OC)nc21 | 340 nM
COCn1cc(C(=O)C(=O)N2CCCC2)c2cc(C(=O)N3CCC(Cc4ccc(F)cc4)CC3)c(OC)nc21 | 79 nM
COCn1cc(C(=O)C(=O)NC(C)C)c2cc(C(=O)N3C[C@H](C)N(Cc4ccc(F)cc4)C[C@H]3C)c(OC)nc21 | 60 nM
COCC(=O)c1c[nH]c2nc(OC)c(C(=O)N3CCN(Cc4ccc(F)cc4)C[C@H]3C)cc12 | 76 nM
COc1nc2[nH]cc(C(=O)C(=O)N(C)C)c2cc1C(=O)N1CCC(Cc2ccc(F)cc2)CC1 | 60 nM
C[C@@H]1CN(Cc2ccc(F)cc2)[C@@H](C)CN1C(=O)c1nc2cc[nH]c2cc1Cl | 66 nM
CCN(C)C(=O)C(=O)c1c[nH]c2nc(OC)c(C(=O)N3CCC(Cc4ccc(F)cc4)CC3)cc12 | 63 nM

Stronger by IC50, values ahead:

IC50 | Structure (SMILES)
56 nM | COc1nc2[nH]cc(C(=O)C(=O)NCCO)c2cc1C(=O)N1CCC(Cc2ccc(F)cc2)CC1
39 nM | COc1nc2[nH]cc(C(=O)C(=O)NN3CCCC3)c2cc1C(=O)N1CCC(Cc2ccc(F)cc2)CC1
32 nM | COc1nc2[nH]cc(C(=O)C(=O)N3CC[C@@H](O)C3)c2cc1C(=O)N1CCC(Cc2ccc(F)cc2)CC1
20 nM | CCNC(=O)C(=O)c1cn(C)c2nc(OC)c(C(=O)N3C[C@H](C)N(Cc4ccc(F)cc4)C[C@H]3C)cc12
41 nM | COc1cc2[nH]ccc2nc1C(=O)N1C[C@H](C)N(Cc2ccc(F)cc2)C[C@H]1C
50 nM | COc1nc2[nH]cc(C(=O)C(=O)N3CCCC3)c2cc1C(=O)N1CCC(Cc2ccc(F)cc2)CC1
44 nM | CNC(=O)C(=O)c1c[nH]c2nc(OC)c(C(=O)N3CCC(Cc4ccc(F)cc4)CC3)cc12
35 nM | COc1nc2c(cc1C(=O)N1CCC(Cc3ccc(F)cc3)CC1)c(C(=O)C(=O)N1CCCC1)cn2C
35 nM | COc1nc2[nH]ccc2cc1C(=O)N1C[C@H](C)N(Cc2ccc(F)cc2)C[C@H]1C
